Measurements reported in patent US9695155B2, “Herbicidal substituted pyrimidinyloxy benzene compounds” (E. I. DU PONT DE NEMOURS AND COMPANY, priority 2013, dated 2017).

Tests used:
velvetleaf [1] = assay: Test A preemergence; assay type: in vivo, Abutilon theophrasti; conditions: for Velvetleaf plant response rating (0 to 100 scale): 125 g ai/ha; for Velvetleaf plant response rating: 500 g ai/ha, 0 to 100 scale where 0 is no effect and 100 is complete control
In short: (§1)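 Scoring: eye-based comparison with untreated controls, 0 for no effect through 100 for complete control, at about day 10. Treatments: directed soil spray preemergence; foliar spray postemergence on 2–10 cm plants at the one- to two-leaf stage. Medium: loam soil with sand.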

wheat = assay: Test A postemergence; assay type: in vivo, Triticum aestivum; conditions: 0 to 100 scale where 0 is no effect and 100 is complete control; for Wheat plant response rating: 125 g ai/ha; for Plant response rating, Wheat: 500 g ai/ha
In short: as §1

velvetleaf [2] = assay: Test C postemergence; assay type: in vivo, Abutilon theophrasti; conditions: for Plant response rating (0 to 100), Velvetleaf: 16 g ai/ha, 0 is no effect, 100 is complete control; for Velvetleaf plant response rating: 31 g ai/ha, 13 to 15 days; for Velvetleaf plant response rating / Plant response rating, Velvetleaf: scale 0 to 100 (0 no effect, 100 complete control)
In short: (§2)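 Rated visually on 0–100 (100 = complete control) after 13–15 days under glass. Treatments went onto freshly seeded loam/sand soil or onto emerged plants at the 1- to 4-leaf stage, using a surfactant-containing solvent formulation.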

morningglory [3] = assay: Test A preemergence; assay type: in vivo, Ipomoea spp.; conditions: for Morningglory plant response rating (0 to 100 scale): 125 g ai/ha; for Morningglory plant response rating: 500 g ai/ha, 0 to 100 scale where 0 is no effect and 100 is complete control
In short: as §1

pigweed [4] = assay: Test C postemergence; assay type: in vivo, Amaranthus retroflexus; conditions: for Plant response rating (0 to 100), Pigweed: 16 g ai/ha, 0 is no effect, 100 is complete control; for Pigweed plant response rating: 31 g ai/ha, 13 to 15 days; for Pigweed plant response rating / Plant response rating, Pigweed: scale 0 to 100 (0 no effect, 100 complete control)
In short: as §2

ragweed = assay: Test C postemergence; assay type: in vivo, Ambrosia elatior; conditions: for Plant response rating (0 to 100), Ragweed: 16 g ai/ha, 0 is no effect, 100 is complete control; for Ragweed plant response rating: 31 g ai/ha, 13 to 15 days; for Ragweed plant response rating / Plant response rating, Ragweed: scale 0 to 100 (0 no effect, 100 complete control)
In short: as §2

wild oat = assay: Test C postemergence; assay type: in vivo, Avena fatua; conditions: for Plant response rating (0 to 100), Oat, Wild: 16 g ai/ha, 0 is no effect, 100 is complete control; for Oat, Wild plant response rating: 31 g ai/ha, 13 to 15 days; for Oat, Wild plant response rating / Plant response rating, Oat, Wild: scale 0 to 100 (0 no effect, 100 complete control)
In short: as §2

morningglory [5] = assay: Test A postemergence; assay type: in vivo, Ipomoea spp.; conditions: 0 to 100 scale where 0 is no effect and 100 is complete control; for Morningglory plant response rating: 125 g ai/ha; for Plant response rating, Morningglory: 500 g ai/ha
In short: as §1

blackgrass = assay: Test C postemergence; assay type: in vivo, Alopecurus myosuroides; conditions: for Plant response rating (0 to 100), Blackgrass: 16 g ai/ha, 0 is no effect, 100 is complete control; for Blackgrass plant response rating: 31 g ai/ha, 13 to 15 days; for Blackgrass plant response rating / Plant response rating, Blackgrass: scale 0 to 100 (0 no effect, 100 complete control)
In short: as §2

kochia = assay: Test C postemergence; assay type: in vivo, Kochia scoparia; conditions: for Plant response rating (0 to 100), Kochia: 16 g ai/ha, 0 is no effect, 100 is complete control; for Kochia plant response rating: 31 g ai/ha, 13 to 15 days; for Kochia plant response rating / Plant response rating, Kochia: scale 0 to 100 (0 no effect, 100 complete control)
In short: as §2

barnyardgrass [6] = assay: Test C postemergence; assay type: in vivo, Echinochloa crus-galli; conditions: for Barnyardgrass plant response rating: 31 g ai/ha, 13 to 15 days; for Barnyardgrass plant response rating / Plant response rating, Barnyardgrass: scale 0 to 100 (0 no effect, 100 complete control)
In short: as §2

Heteranthera limosa = assay: Test B flooded paddy test; assay type: in vivo; conditions: Flood, 250 g ai/ha; 0 to 100 scale where 0 is no effect and 100 is complete control
In short: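 Post-emergence paddy-water application at the 2-leaf stage, with 3 cm flood kept for the whole test. Response was judged visually relative to controls after 13 to 15 greenhouse days, 0 indicating no effect and 100 complete control.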

barnyardgrass [7] = assay: Test A preemergence; assay type: in vivo, Echinochloa crus-galli; conditions: for Barnyardgrass plant response rating (0 to 100 scale, 0 is no effect, 100 is complete control): 125 g ai/ha; for Barnyardgrass plant response rating: 500 g ai/ha, 0 to 100 scale where 0 is no effect and 100 is complete control
In short: as §1

pigweed [8] = assay: Test A preemergence; assay type: in vivo, Amaranthus retroflexus; conditions: for Pigweed plant response rating (0 to 100 scale): 125 g ai/ha; for Pigweed plant response rating: 500 g ai/ha, 0 to 100 scale where 0 is no effect and 100 is complete control
In short: as §1

morningglory [9] = assay: Test C postemergence; assay type: in vivo, Ipomoea coccinea; conditions: for Plant response rating (0 to 100), Morningglory: 16 g ai/ha, 0 is no effect, 100 is complete control; for Morningglory plant response rating: 31 g ai/ha, 13 to 15 days; for Morningglory plant response rating / Plant response rating, Morningglory: scale 0 to 100 (0 no effect, 100 complete control)
In short: as §2

[10] = 125 g ai/ha, postemergence, visual rating

Cc1cnc(Oc2cccc(C#N)c2-n2cc(C(F)(F)F)cn2)nc1 [Compound 180]
Velvetleaf plant response rating (0 to 100 scale) (velvetleaf [1]): 100
Velvetleaf plant response rating (velvetleaf [1]): 100
Wheat plant response rating (wheat): 40
Plant response rating, Wheat (wheat): 80
Plant response rating (0 to 100), Velvetleaf (velvetleaf [2]; postemergence): 30
Velvetleaf plant response rating (velvetleaf [2]; postemergence, visual rating): 40
Plant response rating, Velvetleaf (velvetleaf [2]; [10]): 85
Plant response rating, Velvetleaf (velvetleaf [2]; Postemergence, 62 g ai/ha): 65
Morningglory plant response rating (0 to 100 scale) (morningglory [3]): 90
Morningglory plant response rating (morningglory [3]): 100
Plant response rating (0 to 100), Pigweed (pigweed [4]; postemergence): 10
Pigweed plant response rating (pigweed [4]; postemergence, visual rating): 55
Plant response rating, Pigweed (pigweed [4]; [10]): 70
Plant response rating, Pigweed (pigweed [4]; Postemergence, 62 g ai/ha): 60
Plant response rating (0 to 100), Ragweed (ragweed; postemergence): 35
Ragweed plant response rating (ragweed; postemergence, visual rating): 65
Plant response rating, Ragweed (ragweed; [10]): 70
Plant response rating, Ragweed (ragweed; Postemergence, 62 g ai/ha): 80
Plant response rating (0 to 100), Oat, Wild (wild oat; postemergence): 5
Oat, Wild plant response rating (wild oat; postemergence, visual rating): 10
Plant response rating, Oat, Wild (wild oat; [10]): 30
Plant response rating, Oat, Wild (wild oat; Postemergence, 62 g ai/ha): 20
Morningglory plant response rating (morningglory [5]): 100
Plant response rating, Morningglory (morningglory [5]): 100
Plant response rating (0 to 100), Blackgrass (blackgrass; postemergence): 0
Blackgrass plant response rating (blackgrass; postemergence, visual rating): 10
Plant response rating, Blackgrass (blackgrass; [10]): 30
Plant response rating, Blackgrass (blackgrass; Postemergence, 62 g ai/ha): 5
Plant response rating (0 to 100), Kochia (kochia; postemergence): 40
Kochia plant response rating (kochia; postemergence, visual rating): 50
Plant response rating, Kochia (kochia; [10]): 60
Plant response rating, Kochia (kochia; Postemergence, 62 g ai/ha): 50
Barnyardgrass plant response rating (barnyardgrass [6]; postemergence, visual rating): 5
Plant response rating, Barnyardgrass (barnyardgrass [6]; [10]): 20
Plant response rating, Barnyardgrass (barnyardgrass [6]; Postemergence, 62 g ai/ha): 5
Plant response rating, Ducksalad (Heteranthera limosa): 80
Barnyardgrass plant response rating (0 to 100 scale, 0 is no effect, 100 is complete control) (barnyardgrass [7]): 100
Barnyardgrass plant response rating (barnyardgrass [7]): 100
Pigweed plant response rating (0 to 100 scale) (pigweed [8]): 100
Pigweed plant response rating (pigweed [8]): 100
Plant response rating (0 to 100), Morningglory (morningglory [9]; postemergence): 45
Morningglory plant response rating (morningglory [9]; postemergence, visual rating): 65
Plant response rating, Morningglory (morningglory [9]; [10]): 90
Plant response rating, Morningglory (morningglory [9]; Postemergence, 62 g ai/ha): 75

Clc1cnc(Oc2cccc(Cl)c2-n2cc(I)cn2)nc1 [Compound 181]
Velvetleaf plant response rating (0 to 100 scale) (velvetleaf [1]): 20
Velvetleaf plant response rating (velvetleaf [1]): 40
Wheat plant response rating (wheat): 0
Plant response rating, Wheat (wheat): 30
Plant response rating (0 to 100), Velvetleaf (velvetleaf [2]; postemergence): 25
Velvetleaf plant response rating (velvetleaf [2]; postemergence, visual rating): 20
Plant response rating, Velvetleaf (velvetleaf [2]; [10]): 70
Plant response rating, Velvetleaf (velvetleaf [2]; Postemergence, 62 g ai/ha): 40
Morningglory plant response rating (0 to 100 scale) (morningglory [3]): 0
Morningglory plant response rating (morningglory [3]): 30
Plant response rating (0 to 100), Pigweed (pigweed [4]; postemergence): 85
Pigweed plant response rating (pigweed [4]; postemergence, visual rating): 98
Plant response rating, Pigweed (pigweed [4]; [10]): 98
Plant response rating, Pigweed (pigweed [4]; Postemergence, 62 g ai/ha): 85
Plant response rating (0 to 100), Ragweed (ragweed; postemergence): 5
Ragweed plant response rating (ragweed; postemergence, visual rating): 35
Plant response rating, Ragweed (ragweed; [10]): 45
Plant response rating, Ragweed (ragweed; Postemergence, 62 g ai/ha): 30
Plant response rating (0 to 100), Oat, Wild (wild oat; postemergence): 0
Oat, Wild plant response rating (wild oat; postemergence, visual rating): 5
Plant response rating, Oat, Wild (wild oat; [10]): 5
Plant response rating, Oat, Wild (wild oat; Postemergence, 62 g ai/ha): 5
Morningglory plant response rating (morningglory [5]): 90
Plant response rating, Morningglory (morningglory [5]): 100
Plant response rating (0 to 100), Blackgrass (blackgrass; postemergence): 5
Blackgrass plant response rating (blackgrass; postemergence, visual rating): 5
Plant response rating, Blackgrass (blackgrass; [10]): 25
Plant response rating, Blackgrass (blackgrass; Postemergence, 62 g ai/ha): 15
Plant response rating (0 to 100), Kochia (kochia; postemergence): 70
Kochia plant response rating (kochia; postemergence, visual rating): 100
Plant response rating, Kochia (kochia; [10]): 100
Plant response rating, Kochia (kochia; Postemergence, 62 g ai/ha): 100
Plant response rating (0 to 100), Barnyardgrass (barnyardgrass [6]; 16 g ai/ha, postemergence, 0 is no effect, 100 is complete control): 5
Barnyardgrass plant response rating (barnyardgrass [6]; postemergence, visual rating): 5
Plant response rating, Barnyardgrass (barnyardgrass [6]; [10]): 10
Plant response rating, Barnyardgrass (barnyardgrass [6]; Postemergence, 62 g ai/ha): 10
Plant response rating, Ducksalad (Heteranthera limosa): 75
Barnyardgrass plant response rating (0 to 100 scale, 0 is no effect, 100 is complete control) (barnyardgrass [7]): 50
Barnyardgrass plant response rating (barnyardgrass [7]): 100
Pigweed plant response rating (0 to 100 scale) (pigweed [8]): 100
Pigweed plant response rating (pigweed [8]): 100
Plant response rating (0 to 100), Morningglory (morningglory [9]; postemergence): 15
Morningglory plant response rating (morningglory [9]; postemergence, visual rating): 20
Plant response rating, Morningglory (morningglory [9]; [10]): 98
Plant response rating, Morningglory (morningglory [9]; Postemergence, 62 g ai/ha): 75
